In one test the target is T1, rat-DOR (Rattus norvegicus, UniProt P33533).
T1 construct: expressed in transfected cells
Briefly: Radioligand competition binding, [3H]-DPN, HEK293 membranes, DOR. To be noted: [3H]-DPN displacement; means ± SEM of three experiments in duplicate; read-out: Ki (μM) ± SEM DOR. How it is done:
(§1) All synthesized compounds were tested in vitro by radioligand competition binding using [^3H]-diprenorphine ([^3H]-DPN) to measure the affinity for opioid receptor subtypes in membranes from HEK293 cells stably expressing either MOR, DOR, or KOR, as previously described.
(§2) Confluent monolayers of HEK293 (human embryonic kidney 293) cells stably expressing rat-MOR, rat-DOR, or human-KOR were harvested, collected by centrifugation at 1500 rpm for 5 min, and washed once with phosphate-buffered saline (PBS) at pH 7.5. Membranes from cell pellets were carried out as described by Georgoussi and Zioudrou (1993) and Papakonstantinou et al. (2015). Briefly, cell pellets were resuspended in ice-cold membrane buffer (10 mM Tris-HCl, pH 7.5 and 0.1 mM EDTA), homogenized, and centrifuged at 2,000 g for 3 min at 4 °C. Supernatants were further centrifuged at 45,000 rpm for 30 min at 4 °C. The membrane pellet was resuspended in ice-cold membrane buffer at a protein concentration of approximately 1 mg/mL and stored in aliquots at −70 °C. Protein concentration was determined according to Bradford assay.
(§3) In the experiments designed to define compound affinity and selectivity for MOR, DOR, and KOR, membranes expressing each of these opioid receptors ([…]) were incubated at 30 °C for 45 min in buffer containing 50 mM Tris-HCl, pH 7.5, 100 mM NaCl, and 10 mM MgCl2 as described by Georgoussi et al. […] The ability of compounds 10–16 to displace [^3H]-DPN (3.75 nM) binding to the opioid receptors was assessed as described by Morou And Georgoussi (2005). Non-specific binding was measured in the presence of […] Naloxone. The reaction was stopped by rapid filtration and three washes in ice-cold 50 mM Tris-HCl, pH 7.4, through GF/C filters (Whatman, Maidstone, UK) using an automated cell harvester (Brandel Inc., Gaithersburg, MD, USA). The radioactivity was measured by liquid scintillation counting (Liquid Scintillation Analyzer, Packard).
(§4) Analysis of the binding data was performed using the Origin 7.5 software (OriginLab Corporation, Northampton, MA, USA). In calcium mobilization experiments, data were analyzed by non-linear curve fitting equation, using GraphPad 5.0 software. […] Ligand efficacy was expressed as intrinsic activity (α), calculated as the ratio between the Emax of the ligand and that of the respective standards. Calcium mobilization data were expressed as FIU (fluorescence intensity units) in percent, over the baseline. Agonist potencies are given as pEC50 (the negative logarithm to base 10 of the molar concentration of an agonist that produces 50% of the maximal possible effect, Emax). Concentration response curves to agonists were fitted with the following equation: Effect = baseline + (Emax − baseline)/(1+10^(LogEC50 − X) ∗ HillSlope) where X is the agonist concentration.
For orientation: In a radioligand displacement assay an active substance lowers the binding of a labelled ligand.

The next test deals with T2, recombinant human MOR (Homo sapiens, UniProt P35372).
T2 construct: expressed in transfected cells; gift of Dr. Larry Toll (SRI International); infected with a retrovirus for Gαqi5
As to the kind of experiment: Calcium mobilization assay, CHO-MOR cells expressing Gαqi5. Type of test: cell-based.

Test [1] relates to cells expressing the GαqG66Di5 chimeric protein, but not DOR. As to the kind of experiment: Calcium mobilization in cells expressing the GαqG66Di5 chimeric protein, but not DOR. The test is classed as cell-based. The note with it: up to 10 μM; data not shown. The text has this:
The LP1 functional profile at DOR, previously in vitro detected by adenylyl cyclase, and the [^35S]GTPγS binding assays was controversial. […] Similar findings with DOR spontaneous activity and effects of DOR antagonists have been previously described. This effect was reversed at higher LP1 concentrations. These [^35S]GTPγS binding results reveal the role of LP1 as a DOR antagonist ligand. […] The DOR antagonist profile of LP1 was also detected in vivo by rat tail flick test. […] The remaining LP1 derivatives 11–16 were not able to stimulate calcium mobilization in CHO^DOR cells stably expressing the GαqG66Di5 protein. […]
CHO cells, expressing human opioid receptors and the Gαqi5 protein, and CHODOR, expressing the GαqG66Di5 protein, were maintained in culture medium consisting of Dulbecco minimum essential medium (DMEM) and Ham F-12 (1:1) (50/50) supplemented with 10% fetal calf serum (FCS), L-glutamine (2 mM), geneticin (200 μg/mL; G418), hygromycin B (100 μg/mL) at 37 °C in 5% CO2 humidified air. […] After placing both plates (cell culture and compound plate) into the FlexStation II (Molecular Device, Union City, San Jose, CA 94587, USA), fluorescence changes were measured at room temperature. […] Maximum change in fluorescence, expressed in percent of baseline fluorescence, was used to determine agonist response.
In general terms: A change in cytosolic calcium serves as a functional read-out for many receptors and channels.

The next test deals with DOR. Further details: method as in PMID 20599386. The note with it: less potent than DPDPE; cited from earlier work.
In a further test the target is human-KOR (Homo sapiens, UniProt P41145). As to the kind of experiment: Radioligand competition binding, [3H]-DPN, HEK293 membranes, KOR. Set-up: expressed in transfected cells. To be noted: [3H]-DPN displacement; means ± SEM of three experiments in duplicate; read-out: Ki (μM) ± SEM KOR. The method, then: as §1, §2, §3, §4

Take `C[C@H]1[C@H]2Cc3ccc(O)cc3[C@]1(C)CCN2CCC(=O)Nc1ccccc1` [LP1, 3-[(2R,6R,11R)-8-hydroxy-6,11-dimethyl-1,4,5,6-tetrahydro-2,6-methano-3-benzazocin-3(2H)-yl]-N-phenylpropanamide, reference compound]: the values for the Ki at rat-DOR and at human-KOR were 0.033 ± 0.02 µM and 7.5 ± 0.015 µM, respectively. The EC50 at recombinant human MOR is 97.7 nM. Further, the “intrinsic activity (α) at MOR” value at recombinant human MOR (ratio of Emax of ligand to that of the standard) is on record as 0.40 ± 0.020. Further, the “calcium mobilization in cells without DOR” value in test [1] was “completely inactive”. For the same compound, the “potency in inhibiting cAMP accumulation relative to DPDPE (fold less potent)” value in the test with DOR is recorded as “approximately 85 fold”.

A word on the Ki: it is a dissociation constant, usually derived from enzyme kinetics or from competition with a known ligand. The EC50 is the concentration giving half of the maximal effect.

These data come from PMC6027146, “Synthesis and Structure-Activity Relationships of (−)-cis-N-Normetazocine-Based LP1 Derivatives” (Pharmaceuticals, 2018).
